Experiment [1] concerns the target T1, CDK1/Cyclin B1, GST-tag (Homo sapiens, UniProt P06493).
T1 construct: GST
Briefly: CDK1/Cyclin B1 biochemical phosphorylation assay (Caliper mobility shift). The settings on record: apparent IC50; 1.0 mM ATP or ATP Km; 1.5 nM enzyme; 25° C. As for the experimental part: (§1) Inhibitory effects of the compounds of the disclosure were measured in biochemical assays that measure the enzymatic phosphorylation activity of CDK enzyme in complex of Cyclin proteins phosphorylates 7.5 micromolar fluorescently labelled peptide substrate, 5-FAM-QSPKKG-CONH2, (FL-Peptide 18, Perkin Elmer, 760362) in the presence of adenosine-5′-triphosphate (ATP) and varying concentrations of the test compound in 100 mM 2-[4-(2-hydroxyethyl)piperazin-1-yl] ethanesulfonic acid (HEPES), pH 7.5, 10 mM MgCl2, 0.015% Brij-35, 1 mM dithiothreitol (DTT), 1.0% dimethylsulfoxide (DMSO). Assays were performed at 1.0 mM ATP or at ATP Km of the CDK enzymes in complex with Cyclin proteins. Reactions proceeded until between 10% to 20% total peptides were phosphorylated at room temperature (25° C.) and were terminated with 35 mM 2,2′,2″,2′″-(ethane-1,2-diyldinitrilo)tetraacetic acid (EDTA). Product was detected using the Caliper mobility shift detection method where the phosphorylated peptide (product) and substrate were electrophoretically separated and measured. Percent activity was plotted against log concentration of compound and points to generate an apparent IC50. The following CDK enzymes in complex with different cyclin proteins were used in these assays: • CDK1/Cyclin B1, GST-tag (BPS, 40454), 1.5 nM used in the assay • CDK2/Cyclin E (Eurofins, 14-475), 1.25 nM used in the assays
(§2) For inhibitory activity against CDK2/Cyclin E mutant, the following designations are used: ≤10 nM=A; >10-20 nM=B; >20-30 nM=C; >30-100 nM=D and >100=E. For inhibition CDK1/Cyclin B1, GST-tag: ≥500 nM=A; <100-500 nM=B; <100 nM=C.

Experiment [2] deals with CDK2/Cyclin E (Homo sapiens, UniProt P24941). Briefly: CDK2/Cyclin E biochemical phosphorylation assay (Caliper mobility shift). As for the experimental part: as §1, §2
Where [3] appears, read: apparent IC50, 1.0 mM ATP or ATP Km, 1.25 nM enzyme, 25° C., read-out: CDK2/cyclin E1 IC50.

Structures are written as SMILES. Like-named read-outs stand apart in the source and are kept apart here.

T1 sequence (P06493 whole entry): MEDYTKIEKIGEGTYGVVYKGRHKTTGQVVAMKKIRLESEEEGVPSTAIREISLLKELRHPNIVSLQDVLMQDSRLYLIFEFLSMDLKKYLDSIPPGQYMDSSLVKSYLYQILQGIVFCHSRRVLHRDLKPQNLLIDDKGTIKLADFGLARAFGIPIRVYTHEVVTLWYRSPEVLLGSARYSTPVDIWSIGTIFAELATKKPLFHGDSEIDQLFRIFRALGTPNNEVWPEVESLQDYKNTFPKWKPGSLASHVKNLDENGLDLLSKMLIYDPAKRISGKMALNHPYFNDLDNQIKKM
T1 sequence (P14635 whole entry partner): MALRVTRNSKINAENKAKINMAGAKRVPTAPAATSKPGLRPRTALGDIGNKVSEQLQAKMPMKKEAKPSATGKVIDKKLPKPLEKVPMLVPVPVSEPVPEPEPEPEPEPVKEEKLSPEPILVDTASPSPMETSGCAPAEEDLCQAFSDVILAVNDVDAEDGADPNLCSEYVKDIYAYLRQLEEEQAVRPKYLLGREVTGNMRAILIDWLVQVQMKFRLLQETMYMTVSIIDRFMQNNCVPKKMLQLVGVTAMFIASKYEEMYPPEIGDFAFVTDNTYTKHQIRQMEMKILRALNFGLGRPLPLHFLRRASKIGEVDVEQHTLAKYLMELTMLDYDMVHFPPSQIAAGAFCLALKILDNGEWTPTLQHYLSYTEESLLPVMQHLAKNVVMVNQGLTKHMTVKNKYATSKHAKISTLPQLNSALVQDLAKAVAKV

Regarding `FC(F)Oc1cc(Nc2cnc3cnn(C4CCOCC4)c3n2)n[nH]1` [Example 83, N-(5-(difluoromethoxy)-1H-pyrazol-3-yl)-1-(tetrahydro-2H-pyran-4-yl)-1H-pyrazolo[3,4-b]pyrazin-6-amine], the results for the IC50 in experiment [1] and in experiment [2] (setting [3]) were not below 500 nM and not above 10 nM, respectively. As for `O[C@H]1CC[C@H](n2ncc3ncc(Nc4cc(OC(F)F)[nH]n4)nc32)CC1` [Example 3, (1r,4r)-4-(6-((5-(difluoromethoxy)-1H-pyrazol-3-yl)amino)-1H-pyrazolo[3,4-b]pyrazin-1-yl)cyclohexan-1-ol], the IC50 in experiment [1] was 100 to 500 nM; in experiment [2] (setting [3]), not above 10 nM. As to `N#Cc1nn(CC2CCOCC2)c2nc(Nc3cc(OC(F)F)[nH]n3)cnc12` [Example 62, 6-((5-(difluoromethoxy)-1H-pyrazol-3-yl)amino)-1-((tetrahydro-2H-pyran-4-yl)methyl)-1H-pyrazolo[3,4-b]pyrazine-3-carbonitrile], the IC50 in experiment [1] is not below 500 nM; in experiment [2] (setting [3]) it was not above 10 nM. On to `FC(F)Oc1cc(Nc2cnc3cnn(Cc4cccnn4)c3n2)n[nH]1` [Example 222, N-(5-(difluoromethoxy)-1H-pyrazol-3-yl)-1-(pyridazin-3-ylmethyl)-1H-pyrazolo[3,4-b]pyrazin-6-amine], for which the IC50 in experiment [1] was not below 500 nM; in experiment [2] (setting [3]) it was not above 10 nM.

Regarding `C[C@@H](C1CC1)n1ncc2ncc(Nc3cc(OC(F)F)[nH]n3)nc21` [Example 51, (S)-1-(1-cyclopropylethyl)-N-(5-(difluoromethoxy)-1H-pyrazol-3-yl)-1H-pyrazolo[3,4-b]pyrazin-6-amine], the IC50 in experiment [1] is 100 to 500 nM; in experiment [2] (setting [3]), not above 10 nM. On to `FC(F)Oc1cc(Nc2cnc3cnn(CC4CCCCC4)c3n2)n[nH]1` [Example 105, 1-(cyclohexylmethyl)-N-(5-(difluoromethoxy)-1H-pyrazol-3-yl)-1H-pyrazolo[3,4-b]pyrazin-6-amine], for which the IC50 in experiment [1] is 100 to 500 nM; in experiment [2] (setting [3]), not above 10 nM. Take `C[C@@H](c1cccnn1)n1ncc2ncc(Nc3cc(OC(F)F)[nH]n3)nc21` (single isomer, unassigned) [Example 24, (S)—N-(5-(difluoromethoxy)-1H-pyrazol-3-yl)-1-(1-(pyridazin-3-yl)ethyl)-1H-pyrazolo[3,4-b]pyrazin-6-amine or (R)—N-(5-(difluoromethoxy)-1H-pyrazol-3-yl)-1-(1-(pyridazin-3-yl)ethyl)-1H-pyrazolo[3,4-b]pyrazin-6-amine]: the IC50 in experiment [1] is 100 to 500 nM; in experiment [2] (setting [3]), not above 10 nM. Take `OC[C@@H](c1cccnc1)n1ncc2ncc(Nc3cc(OC(F)F)[nH]n3)nc21` [Example 204, (R)-2-(6-((5-(difluoromethoxy)-1H-pyrazol-3-yl)amino)-1H-pyrazolo[3,4-b]pyrazin-1-yl)-2-(pyridin-3-yl)ethan-1-ol]: the IC50 in experiment [1] is not below 500 nM; in experiment [2] (setting [3]) it was 20 to 30 nM.

As to `C[C@@H](c1cccc(F)c1)n1ncc2ncc(Nc3cc(OC(F)F)[nH]n3)nc21` [Example 43, (S)-N-(5-(difluoromethoxy)-1H-pyrazol-3-yl)-1-(1-(3-fluorophenyl)ethyl)-1H-pyrazolo[3,4-b]pyrazin-6-amine], the IC50 was not below 500 nM in experiment [1] and not above 10 nM in experiment [2] (setting [3]). Regarding `CC[C@@H]([C@H](C)O)n1ncc2ncc(Nc3cc(OC(F)F)[nH]n3)nc21` (single isomer, unassigned) [Example 6, (2S,3S)-3-(6-((5-(difluoromethoxy)-1H-pyrazol-3-yl)amino)-1H-pyrazolo[3,4-b]pyrazin-1-yl)pentan-2-ol or (2S,3R)-3-(6-((5-(difluoromethoxy)-1H-pyrazol-3-yl)amino)-1H-pyrazolo[3,4-b]pyrazin-1-yl)pentan-2-ol], the results for the IC50 in experiment [1] and in experiment [2] (setting [3]) were not below 500 nM and 30 to 100 nM, respectively. In the case of `FC(F)Oc1cc(Nc2cnc3cnn([C@@H]4CCCOC4)c3n2)n[nH]1` [Example 78, (R)-N-(5-(difluoromethoxy)-1H-pyrazol-3-yl)-1-(tetrahydro-2H-pyran-3-yl)-1H-pyrazolo[3,4-b]pyrazin-6-amine], the IC50 was not below 500 nM in experiment [1] and 30 to 100 nM in experiment [2] (setting [3]). `C[C@@H](c1ccc(F)nc1)n1ncc2ncc(Nc3cc(OC(F)F)[nH]n3)nc21` (single isomer, unassigned) [Example 151, (S)-N-(5-(difluoromethoxy)-1H-pyrazol-3-yl)-1-(1-(6-fluoropyridin-3-yl)ethyl)-1H-pyrazolo[3,4-b]pyrazin-6-amine or (R)-N-(5-(difluoromethoxy)-1H-pyrazol-3-yl)-1-(1-(6-fluoropyridin-3-yl)ethyl)-1H-pyrazolo[3,4-b]pyrazin-6-amine]: the IC50 in experiment [1] is not below 500 nM; in experiment [2] (setting [3]), not above 10 nM.

As to `COc1cc(Nc2cnc3cnn([C@@H](C(F)F)C4CCOCC4)c3n2)n[nH]1` (single isomer, unassigned) [Example 193, (S)-1-(2,2-difluoro-1-(tetrahydro-2H-pyran-4-yl)ethyl)-N-(5-methoxy-1H-pyrazol-3-yl)-1H-pyrazolo[3,4-b]pyrazin-6-amine or (R)-1-(2,2-difluoro-1-(tetrahydro-2H-pyran-4-yl)ethyl)-N-(5-methoxy-1H-pyrazol-3-yl)-1H-pyrazolo[3,4-b]pyrazin-6-amine], the IC50 is not below 500 nM in experiment [1] and 10 to 20 nM in experiment [2] (setting [3]). For `COc1cc(Nc2cnc3cnn([C@@H](CF)C4CCOCC4)c3n2)n[nH]1` (single isomer, unassigned) [Example 194, (R)-1-(2-fluoro-1-(tetrahydro-2H-pyran-4-yl)ethyl)-N-(5-methoxy-1H-pyrazol-3-yl)-1H-pyrazolo[3,4-b]pyrazin-6-amine or (S)-1-(2-fluoro-1-(tetrahydro-2H-pyran-4-yl)ethyl)-N-(5-methoxy-1H-pyrazol-3-yl)-1H-pyrazolo[3,4-b]pyrazin-6-amine] the same measures were 100 to 500 nM and not above 10 nM. `FC(F)Oc1cc(Nc2cnc3cnn([C@H](C4CCOCC4)C4CC4)c3n2)n[nH]1` (single isomer, unassigned) [Example 157, (S)-1-(cyclopropyl(tetrahydro-2H-pyran-4-yl)methyl)-N-(5-(difluoromethoxy)-1H-pyrazol-3-yl)-1H-pyrazolo[3,4-b]pyrazin-6-amine or (R)-1-(cyclopropyl(tetrahydro-2H-pyran-4-yl)methyl)-N-(5-(difluoromethoxy)-1H-pyrazol-3-yl)-1H-pyrazolo[3,4-b]pyrazin-6-amine]: the IC50 is not below 500 nM in experiment [1] and 30 to 100 nM in experiment [2] (setting [3]). On to `C[C@@H](O)c1nn([C@@H](C)C2CCOCC2)c2nc(Nc3cc(OC(F)F)[nH]n3)cnc12` (single isomer, unassigned) [Example 181, (R)-1-(6-((5-(difluoromethoxy)-1H-pyrazol-3-yl)amino)-1-((S)-1-(tetrahydro-2H-pyran-4-yl)ethyl)-1H-pyrazolo[3,4-b]pyrazin-3-yl)ethan-1-ol or (S)-1-(6-((5-(difluoromethoxy)-1H-pyrazol-3-yl)amino)-1-((S)-1-(tetrahydro-2H-pyran-4-yl)ethyl)-1H-pyrazolo[3,4-b]pyrazin-3-yl)ethan-1-ol], for which the IC50 was not below 500 nM in experiment [1] and not above 10 nM in experiment [2] (setting [3]). Regarding `O[C@H]1CC[C@@H](n2ncc3ncc(Nc4cc(OC(F)F)[nH]n4)nc32)C1` (single isomer, unassigned) [Example 209], the IC50 in experiment [1] was not below 500 nM; in experiment [2] (setting [3]), more than 100 nM. Turning to `COc1cc(Nc2cnc3cnn(CC4CC4)c3n2)n[nH]1` [Example 69, 1-(cyclopropylmethyl)-N-(5-methoxy-1H-pyrazol-3-yl)-1H-pyrazolo[3,4-b]pyrazin-6-amine], the figures for the IC50 in experiment [1] and in experiment [2] (setting [3]) were not below 500 nM and 30 to 100 nM, respectively. On the same counts, the results for `C[C@H](c1cccnc1)n1ncc2ncc(Nc3cc(OC(F)F)[nH]n3)nc21` [Example 91, (R)-N-(5-(difluoromethoxy)-1H-pyrazol-3-yl)-1-(1-(pyridin-3-yl)ethyl)-1H-pyrazolo[3,4-b]pyrazin-6-amine] are not below 500 nM and 20 to 30 nM. `FC(F)Oc1cc(Nc2cnc3cnn([C@H](c4ccccn4)C4CC4)c3n2)n[nH]1` [Example 102, (S)-1-(cyclopropyl(pyridin-2-yl)methyl)-N-(5-(difluoromethoxy)-1H-pyrazol-3-yl)-1H-pyrazolo[3,4-b]pyrazin-6-amine]: the values for the IC50 in experiment [1] and in experiment [2] (setting [3]) were not below 500 nM and 20 to 30 nM, respectively.

With `O[C@H]1C[C@H](Cn2ncc3ncc(Nc4cc(OC(F)F)[nH]n4)nc32)C1` [Example 220, (1r,3r)-3-((6-((5-(difluoromethoxy)-1H-pyrazol-3-yl)amino)-1H-pyrazolo[3,4-b]pyrazin-1-yl)methyl)cyclobutan-1-ol], the IC50 in experiment [1] was not below 500 nM; in experiment [2] (setting [3]), 30 to 100 nM. As for `CC(c1cccn(C)c1=O)n1ncc2ncc(Nc3cc(OC(F)F)[nH]n3)nc21` (stereo not shown), the IC50 in experiment [2] (additional compounds not disclosed herein, assays of Biological Example 1, read-out: inhibitory activity for CDK2/cyclin E1) was more than 10000 nM.

These data come from patent publication US11970498B2, “CDK2 inhibitors” (BLUEPRINT MEDICINES CORPORATION, priority 2021, dated 2024).
